Marks after values point to notes of the source that are not given here.
Key:
[1] = In vivo test: nitrate content in the blood of mice after single gastric gavage; details: 2 mmol/kg sodium nitrate, once
Description: Blood was collected from vena caudalis at 0 h, and 2, 4, 6, 12, and 24 h after gastric gavage, respectively.

NOD/Itj mice [2] = experiment: Salivary flow rate of NOD/Itj mice (animal model of SS); type: in vivo; details: for effect on salivary flow rate of NOD/Itj mice (in words): gastric gavage; for Salivary flow rate (mean value ± SD): NOD/Itj mice, gastric gavage from 8th week, microcapsules 0.4 mmol/kg NO3−, NaNO3 0.4 mmol/kg, Vc 2 mmol/kg
Description: Therefore, the NOD/Itj mouse can be used as an animal model of SS. Subsequently, the microcapsules of the present invention were administered by gastric gavage, the saliva flow rate was monitored, and the experimental samples were collected at the 12th week to observe the prophylactic and therapeutic effects of the microcapsules of the present invention on SS.
After proper anaesthesia, the mice were injected I.P. with pilocarpine nitrate in aseptic normal saline at a concentration of 0.4 mg/ml and a dosage of 0.5 mg/100 g b.w. After the injection, the mice were laid on a 20° inclined mouse board on prone position, with the head slightly inclined downward, so that the head was in a slightly lower position. About 5 minutes after the injection, after the first drop of saliva from the mouth of the mouse, after 5 minutes, the time was recorded and the saliva was collected, and the amount of saliva was collected for 20 minutes (the amount of saliva is detected by inserting a small sterile cotton ball with known weight under the tongue of mouse, and weighing cotton ball 20 minutes later).
(§1) Saliva flow rate was measured […].

NOD/Itj mice [3] = experiment: Lymphocyte infiltration in submandibular gland of NOD/Itj mice (HE staining, Image J); type: in vivo; details: 14th week, gastric gavage from 8th week, microcapsules 0.4 mmol/kg NO3−, NaNO3 0.4 mmol/kg, Vc 2 mmol/kg
Description: The salivary flow rate was measured every two weeks from the 8th week after birth, and the saliva was collected. At the same time, the submandibular gland samples were collected and stained with HE for histological observation, and the degree of lymphocyte infiltration was analyzed by Image J.
After the experimental animals were sacrificed, they were placed on supine position, disinfected, and the neck was incised to dissect the submandibular gland completely. The tissues were washed with PBS, cut into 0.2 cmx 0.2 cm, and fixed in 4% paraformaldehyde (pH 7.2) at 4° C. for 24-48 h. After dehydration, wax impregnation and embedding, the tissues were sectioned at a thickness of 4 μm and baked, followed by hematoxylin and eosin (HE) staining. The remaining fresh samples were placed in a refrigerator at −80° C.
as §1

[4] = after oral administration; cited from earlier work

SMILES	Nitrate content in the blood of the mice after single administration ([1]; 0 h) [µmol/L]	Nitrate content in the blood of the mice after single administration ([1]; 2 h) [µmol/L]	Nitrate content in the blood of the mice after single administration ([1]; 4 h) [µmol/L]	Nitrate content in the blood of the mice after single administration ([1]; 6 h) [µmol/L]	Nitrate content in the blood of the mice after single administration ([1]; 12 h) [µmol/L]	Nitrate content in the blood of the mice after single administration ([1]; 24 h) [µmol/L]	effect on salivary flow rate of NOD/Itj mice (in words) (NOD/Itj mice [2])	Salivary flow rate (mean value ± SD) (NOD/Itj mice [2]; week 8) [g/10 min]	Salivary flow rate (mean value ± SD) (NOD/Itj mice [2]; week 9) [g/10 min]	Salivary flow rate (mean value ± SD) (NOD/Itj mice [2]; week 10) [g/10 min]	Salivary flow rate (mean value ± SD) (NOD/Itj mice [2]; week 11) [g/10 min]	Salivary flow rate (mean value ± SD) (NOD/Itj mice [2]; week 12) [g/10 min]	Salivary flow rate (mean value ± SD) (NOD/Itj mice [2]; week 13) [g/10 min]	Salivary flow rate (mean value ± SD) (NOD/Itj mice [2]; week 14) [g/10 min]	Infiltration area of the submandibular gland (NOD/Itj mice [3])	half-life in vivo [4] [h]
O=[N+]([O-])[O-].[Na+] [NaNO3, sodium nitrate]	41.8	1052.8	572.4	297.4	45.3	32.7	no obvious influence	0.078 ± 0.011	0.068 ± 0.006	0.060 ± 0.004	0.057 ± 0.004	0.061 ± 0.009	0.062 ± 0.007	0.059 ± 0.009	4.42 ± 0.54^b %	
O=C1O[C@H]([C@@H](O)CO)C(O)=C1O [Vc, vitamin C]							no obvious influence	0.077 ± 0.012	0.063 ± 0.008	0.049 ± 0.007	0.041 ± 0.008	0.038 ± 0.006	0.035 ± 0.008	0.034 ± 0.007	5.16 ± 0.58%	2

From patent US20240342135A1, “USE OF NITRATE AND VITAMIN C MICROCAPSULE FOR TREATING SICCA SYNDROME” (CAPITAL MEDICAL UNIVERSITY, priority 2021, published 2024)
